We go through 51 compounds from ChEMBL document CHEMBL2094269, “WEHI/Eskitis Trypanosoma b. brucei screening data”.

As usually defined, the IC50 is the concentration that gives 50% inhibition.

In series [1] the test system is Trypanosoma brucei brucei. The experiment in a line: microbe, parasite or virus in culture. The format is functional, organism-based, STIB 795.
Description: DNDI: Inhibition of Human African Trypanosomiasis (HAT), STIB 795, in vitro
A short description of series [2]: DNDI: Cytotoxicity against human MRC-5 lung fibroblast cells. The note with it: IC50.

Several values for one entry are separate records, joined by “and”; a condition that tells them apart may be missing. Equal entries are not always repeated.

As to `N=c1n(Cc2ccccc2)c2ccccc2n1CC(O)COc1ccccc1` (configuration not stated), the IC50 in series [1] (Trypanosoma brucei, STIB 795) is 7.55 µM; in series [2] it was over 41.7 µM.

As for `CCCCC(=O)NC(c1ccc(N(C)C)cc1)c1ccc2cccnc2c1O` (configuration not stated), the IC50 in series [1] (Trypanosoma brucei, STIB 795) was 5.84 µM; in series [2] it was over 20.8 µM.

In the case of `CN(C)CCNC(=O)c1ccc(COc2ccc(Cl)cc2Cl)cc1`, the IC50 in series [1] (Trypanosoma brucei, STIB 795) was 3.41 µM; in series [2] it was over 20.8 µM.

Regarding `CC(C)C1CC(CCNCc2ccc(N(C)C)cc2)(c2ccccc2)CCO1` (configuration not stated), the IC50 in series [1] (Trypanosoma brucei, STIB 795) was 5.22 µM; in series [2] it was over 41.7 µM.

For the compound `C=CCN1C(=O)C(O)(CC(=O)c2ccco2)c2cc(Br)ccc21` (configuration not stated), the IC50 was 0.483 µM in series [1] (Trypanosoma brucei, STIB 795) and over 41.7 µM in series [2].

Consider `CCN(CC)CCNc1cc(C)nc2c1C(=O)C(=O)C=C2N1CCCCC1`, for which the IC50 in series [1] (Trypanosoma brucei, STIB 795) turned out to be 4.07 µM; in series [2] it was 6.25 µM.

Consider `CC[n+]1c(/C=C/c2ccc(N(C)C)cc2)sc2cc(NC(C)=O)ccc21`, for which the IC50 is 0.049 µM in series [1] (Trypanosoma brucei, STIB 795) and over 20.8 µM in series [2].

Regarding `CCN(CC)c1ccc(/C=N\NC(=O)Cn2nnc3ccccc32)c(O)c1`, the IC50 in series [1] (Trypanosoma brucei, STIB 795) was 0.551 µM; in series [2], over 41.7 µM.

Consider `O=C(CN1C(=O)S/C(=C/c2ccccc2Cl)C1=O)N1CCOCC1`, for which the IC50 in series [1] (Trypanosoma brucei, STIB 795) was 5.03 µM; in series [2], over 41.7 µM.

Regarding `CN(CCO)CC(O)Cn1c2ccc(Cl)cc2c2cc(Cl)ccc21` (configuration not stated), the IC50 was 4.95 µM in series [1] (Trypanosoma brucei, STIB 795) and over 20.8 µM in series [2].

For the compound `Cc1ccc(C(=O)ON=C(/C=C/c2ccccc2)/C=C/c2ccccc2)cc1`, the IC50 in series [1] (Trypanosoma brucei, STIB 795) is 1.65 µM; in series [2] it was over 41.7 µM.

On to `CC(CON1C(N)=NC(N)=NC1(C)C)Cc1cccc(Br)c1` (configuration not stated), for which the IC50 in series [1] (Trypanosoma brucei, STIB 795) was at most 3.67 µM; in series [2], over 4.17 µM.

For `CN(CCCNC(=O)c1n[nH]c2c1COc1ccccc1-2)C1CCCCC1`, the IC50 in series [1] (Trypanosoma brucei, STIB 795) was 5.06 µM; in series [2], over 20.8 µM.

Turning to `COc1ccc(C2=Nn3c([n+](C)c4cc(C)c(C)cc43)SC2)cc1OC`, the IC50 in series [1] (Trypanosoma brucei, STIB 795) was 5.33 µM; in series [2], over 20.8 µM.

For the compound `Brc1ccc(-c2nc(N3CCNCC3)c3ccccc3n2)cc1`, the IC50 in series [1] (Trypanosoma brucei, STIB 795) is 2.83 µM; in series [2], over 10.4 µM.

Consider `Cc1cc(C)c(OCCCCCCN2CCNCC2)c(Br)c1`, for which the concentration for half-maximal inhibition (IC50) in series [1] (Trypanosoma brucei, STIB 795) was 1.02 µM; in series [2], over 20.8 µM.

Consider `CCOC(=O)c1c(CN2CCOCC2)oc2c1C(=O)C(=O)c1ccccc1-2`, for which the IC50 is 0.846 µM in series [1] (Trypanosoma brucei, STIB 795) and over 20.8 µM in series [2].

Take `CCCCN1/C(=C/c2cc[n+](CC)c3ccccc23)C=Cc2cc(C)ccc21`: the IC50 was 0.831 µM in series [1] (Trypanosoma brucei, STIB 795) and over 10.4 µM in series [2].

`CCCC[n+]1c(/C=C2/C=CN(CC)c3ccc(C)cc32)ccc2ccccc21`: the IC50 in series [1] (Trypanosoma brucei, STIB 795) is 0.362 µM; in series [2], over 4.17 µM.

In the case of `O=C(O/N=C(/NCc1ccccc1)c1ccc(Cl)cc1)c1cccs1`, the IC50 in series [1] (Trypanosoma brucei, STIB 795) was 0.47 µM; in series [2], over 41.7 µM.

In the case of `CCOC(=O)N1CCN(C2=C(NC(C)=O)C(=O)c3ccccc3C2=O)CC1`, the IC50 in series [1] (Trypanosoma brucei, STIB 795) was 5.36 µM; in series [2], over 41.7 µM.

Take `COc1cc(C(=O)Nc2nc(-c3ccccn3)cs2)cc(OC)c1OC`: the IC50 is 4.6 µM in series [1] (Trypanosoma brucei, STIB 795) and over 41.7 µM in series [2].

In the case of `CCc1c(C)nc(-n2nc(C)cc2NC(=O)c2ccccc2Cl)[nH]c1=O`, the IC50 is 2.88 µM in series [1] (Trypanosoma brucei, STIB 795) and over 20.8 µM in series [2].

Consider `O=C1CC(Sc2nc(-c3ccco3)cc(C(F)(F)F)n2)C2COC1O2` (configuration not stated), for which the IC50 was 12 µM and 5.11 µM in series [1]; over 20.8 µM in series [2].

`CC(Cc1ccco1)NC(=O)c1cccc(NC(=O)C2=CSCCO2)c1` (configuration not stated): the IC50 in series [1] (Trypanosoma brucei, STIB 795) was 5.79 µM; in series [2], over 41.7 µM.

For the compound `Cc1cc(C2=CC(C)(C)NC(C)(C)C2)sc1C1=CC(C)(C)NC(C)(C)C1`, the IC50 was 4.82 µM in series [1] (Trypanosoma brucei, STIB 795) and over 41.7 µM in series [2].

Take `CC(C)C1N=C(c2ccc3c(c2)OCO3)CC(c2cc(Cl)ccc2O)N1` (configuration not stated): the IC50 in series [1] (Trypanosoma brucei, STIB 795) is 5.58 µM; in series [2] it was over 41.7 µM.

In the case of `CCOc1ccc2nc3cc(NCc4ccccc4OC)ccc3c(N)c2c1`, the half-maximal inhibitory concentration (IC50) in series [1] (Trypanosoma brucei, STIB 795) is 4.58 µM; in series [2] it was over 20.8 µM.

Consider `COC(=O)c1ccc2c(c1)C(C)(C)C(/C=C/c1c(C)[nH]c3ccccc13)=[N+]2C`, for which the IC50 in series [1] (Trypanosoma brucei, STIB 795) is 2.97 µM; in series [2] it was over 4.17 µM.

Consider `CC(C)n1c(=N)n(CCOc2ccc(Br)cc2)c2ccccc21`, for which the IC50 in series [1] (Trypanosoma brucei, STIB 795) is 2.02 µM; in series [2], over 4.17 µM.

For the compound `CCC1=C(C)c2cc3nc(C(=O)OCc4ccccc4)c(C)c-3c(C)n2C1C` (configuration not stated), the IC50 in series [1] (Trypanosoma brucei, STIB 795) is 5.66 µM; in series [2] it was over 41.7 µM.

As for `CC1(C)CC2CC(C)(CN2C(=O)COCc2cc(-c3cccs3)on2)C1` (configuration not stated), the IC50 in series [1] (Trypanosoma brucei, STIB 795) is 5.44 µM; in series [2], over 41.7 µM.

For `Cc1ccccc1OCCn1c(=N)n(Cc2ccccc2F)c2ccccc21`, the IC50 in series [1] (Trypanosoma brucei, STIB 795) is 4.95 µM; in series [2], over 20.8 µM.

On to `CCOC(=O)c1ccc(CCCCCON2C(N)=NC(N)=NC2(C)C)cc1`, for which the IC50 in series [1] (Trypanosoma brucei, STIB 795) is 1.05 µM; in series [2], over 1.04 µM.

Take `CCOc1cc2c(cc1OCC)C(c1ccc(Br)cc1)NCC2` (configuration not stated): the IC50 in series [1] (Trypanosoma brucei, STIB 795) was 5.55 µM; in series [2], over 41.7 µM.

For the compound `O=C(CS(=O)(=O)c1ccc(F)cc1)Nc1nc(-c2ccccn2)cs1`, the IC50 was 0.791 µM in series [1] (Trypanosoma brucei, STIB 795) and over 10.4 µM in series [2].

`N=c1n(CCOc2ccccc2)c2ccccc2n1Cc1ccc(Cl)cc1`: the 50% inhibitory concentration (IC50) in series [1] (Trypanosoma brucei, STIB 795) is 6.63 µM; in series [2] it was over 41.7 µM.

In the case of `Cc1ccc(-c2cc(C(F)F)nc(SC3CC(=O)C4OCC3O4)n2)cc1` (configuration not stated), the IC50 in series [1] is > 10.4 µM and 5.2 µM; in series [2], over 41.7 µM.

On to `CC(C)Cc1nc(NCCC2CCCN2C)c2cnn(-c3ccccc3)c2n1` (configuration not stated), for which the IC50 was 2.66 µM in series [1] (Trypanosoma brucei, STIB 795) and over 20.8 µM in series [2].

For `COc1ccc(-c2cs/c(=N\CC3CCNCC3)n2-c2ccccc2)cc1`, the IC50 in series [1] (Trypanosoma brucei, STIB 795) was 5.74 µM; in series [2], over 20.8 µM.

Take `CN(C)c1ccc(/C=C/c2cc(-c3ccccc3)n(-c3ccccc3)[n+]2C)cc1`: the IC50 is 0.68 µM in series [1] (Trypanosoma brucei, STIB 795) and over 20.8 µM in series [2].

With `COc1ccccc1C(CCNC(C)c1ccccc1)C1CCOC(C)(C)C1` (configuration not stated), the IC50 is 4.74 µM in series [1] (Trypanosoma brucei, STIB 795) and over 41.7 µM in series [2].

With `O=C(NC(c1ccco1)c1cc(Cl)c2cccnc2c1O)c1cccnc1` (configuration not stated), the IC50 in series [1] (Trypanosoma brucei, STIB 795) is 0.053 µM; in series [2] it was over 20.8 µM.

Consider `CC[n+]1c(/C=C/c2ccc(N(C)C)cc2)sc2ccc(C(=O)OC)cc21`, for which the IC50 in series [1] (Trypanosoma brucei, STIB 795) was 0.131 µM; in series [2], over 20.8 µM.

With `CCC1(C)CC(CCNCc2ccccc2O)(c2ccc(F)cc2)CCO1` (configuration not stated), the IC50 in series [1] (Trypanosoma brucei, STIB 795) is 4.73 µM; in series [2], over 41.7 µM.

As for `Oc1c(CN2CCC(Cc3ccccc3)CC2)cc(Cl)c2cccnc12`, the IC50 in series [1] (Trypanosoma brucei, STIB 795) is 4.68 µM; in series [2] it was over 20.8 µM.

Consider `CCCCC(=O)NC(c1cccs1)c1cc(Cl)c2cccnc2c1O` (configuration not stated), for which the half-maximal inhibitory concentration (IC50) is 0.666 µM in series [1] (Trypanosoma brucei, STIB 795) and over 41.7 µM in series [2].

Turning to `O=C(NC(c1ccccc1F)c1ccc2cccnc2c1O)c1ccccc1` (configuration not stated), the IC50 in series [1] (Trypanosoma brucei, STIB 795) was 6.12 µM; in series [2], over 4.17 µM.

Turning to `CCOc1ccc(N(C(C)=O)C2=C(N(C)C)C(=O)c3ccccc3C2=O)cc1`, the IC50 was 5.11 µM in series [1] (Trypanosoma brucei, STIB 795) and over 4.17 µM in series [2].

For the compound `Oc1cccnc1NC(c1ccc(Cl)cc1)c1ccc2cccnc2c1O` (configuration not stated), the IC50 in series [1] (Trypanosoma brucei, STIB 795) was 4.02 µM; in series [2] it was over 41.7 µM.

For the compound `CCN1/C(=C/C=C/C2=[N+](C)c3ccc(C)cc3C2(C)C)C=Cc2ccccc21`, the concentration for half-maximal inhibition (IC50) was 0.239 µM in series [1] (Trypanosoma brucei, STIB 795) and over 4.17 µM in series [2].
